Reference: US6358885B1, “Substituted phenylheterocyclic herbicides” (Mississippi State University, priority 1992, dated 2002)

Experiments:
Experiment in all cases: Test B preemergence/postemergence greenhouse plant response rating 0 to 10
barley = assay type: in vivo, Hordeum vulgare; conditions: for Plant response rating, Barley: 0 to 10 scale
Method in brief: (§1)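 Test chemicals, dissolved in a non-phytotoxic solvent, were applied to soil at planting and, at the same time, over foliage of seedlings at the one to four leaf stage.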

barnyardgrass = assay type: in vivo, Echinochloa crus-galli; conditions: for Plant response rating, Barnyardgrass: 0 to 10 scale
Method in brief: as §1

bedstraw = assay type: in vivo, Galium aparine; conditions: for Plant response rating, Bedstraw: 0 to 10 scale
Method in brief: as §1

blackgrass = assay type: in vivo, Alopecurus myosuroides; conditions: for Plant response rating, Blackgrass: 0 to 10 scale
Method in brief: as §1

cheatgrass = assay type: in vivo, Bromus secalinus; conditions: for Plant response rating, Cheatgrass: 0 to 10 scale
Method in brief: as §1

chickweed = assay type: in vivo, Stellaria media; conditions: for Plant response rating, Chickweed: 0 to 10 scale
Method in brief: as §1

cocklebur = assay type: in vivo, Xanthium pensylvanicum; conditions: for Plant response rating, Cocklebur: 0 to 10 scale
Method in brief: as §1

corn = assay type: in vivo, Zea mays; conditions: for Plant response rating, Corn: 0 to 10 scale
Method in brief: as §1

cotton = assay type: in vivo, Gossypium hirsutum; conditions: for Plant response rating, Cotton: 0 to 10 scale
Method in brief: as §1

crabgrass = assay type: in vivo, Digitaria spp.; conditions: for Plant response rating, Crabgrass: 0 to 10 scale
Method in brief: as §1

giant foxtail = assay type: in vivo, Setaria faberii; conditions: for Plant response rating, Giant foxtail: 0 to 10 scale
Method in brief: as §1

lambsquarters = assay type: in vivo, Chenopodium album; conditions: for Plant response rating, Lambsquarter: 0 to 10 scale
Method in brief: as §1

morningglory = assay type: in vivo, Ipomoea hederacea; conditions: for Plant response rating, Morningglory: 0 to 10 scale
Method in brief: as §1

rape = assay type: in vivo, Brassica napus; conditions: for Plant response rating, Rape: 0 to 10 scale
Method in brief: as §1

rice = assay type: in vivo, Oryza sativa; conditions: for Plant response rating, Rice: 0 to 10 scale
Method in brief: as §1

sorghum = assay type: in vivo, Sorghum bicolor; conditions: for Plant response rating, Sorghum: 0 to 10 scale
Method in brief: as §1

soybean = assay type: in vivo, Glycine max; conditions: for Plant response rating, Soybean: 0 to 10 scale
Method in brief: as §1

sugar beet = assay type: in vivo, Beta vulgaris; conditions: for Plant response rating, Sugar beet: 0 to 10 scale
Method in brief: as §1

velvetleaf = assay type: in vivo, Abutilon theophrasti; conditions: for Plant response rating, Velvetleaf: 0 to 10 scale
Method in brief: as §1

wheat = assay type: in vivo, Triticum aestivum; conditions: for Plant response rating, Wheat: 0 to 10 scale
Method in brief: as §1

wild buckwheat = assay type: in vivo, Polygonum convolvulus; conditions: for Plant response rating, Wild buckwheat: 0 to 10 scale
Method in brief: as §1

wild oat = assay type: in vivo, Avena fatua; conditions: for Plant response rating, Wild oat: 0 to 10 scale
Method in brief: as §1

purple nutsedge = assay type: in vivo, Cyperus rotundus; conditions: for Plant response rating, Nutsedge: 0 to 10 scale
Method in brief: as §1

CC(C)Oc1cc(-c2nn3c(c2Cl)CCCC3)c(Cl)cc1Cl [Compound 70]
Plant response rating, Barley (barley; POSTEMERGENCE, Rate 50 g/ha): 3
Plant response rating, Barley (barley; PREEMERGENCE, Rate 50 g/ha): 0
Plant response rating (0 to 10 scale), Barley (barley; PREEMERGENCE, Rate 200 g/ha): 0
Plant response rating, Barley (barley; Rate 200 g/ha, POSTEMERGENCE): 4
Plant response rating, Barnyardgrass (barnyardgrass; POSTEMERGENCE, Rate 50 g/ha): 6
Plant response rating, Barnyardgrass (barnyardgrass; PREEMERGENCE, Rate 50 g/ha): 0
Plant response rating (0 to 10 scale), Barnyardgrass (barnyardgrass; PREEMERGENCE, Rate 200 g/ha): 0
Plant response rating, Barnyardgrass (barnyardgrass; Rate 200 g/ha, POSTEMERGENCE): 7
Plant response rating, Bedstraw (bedstraw; POSTEMERGENCE, Rate 50 g/ha): 8
Plant response rating, Bedstraw (bedstraw; PREEMERGENCE, Rate 50 g/ha): 1
Plant response rating (0 to 10 scale), Bedstraw (bedstraw; PREEMERGENCE, Rate 200 g/ha): 6
Plant response rating, Bedstraw (bedstraw; Rate 200 g/ha, POSTEMERGENCE): 7
Plant response rating, Blackgrass (blackgrass; PREEMERGENCE, Rate 50 g/ha): 0
Plant response rating (0 to 10 scale), Blackgrass (blackgrass; PREEMERGENCE, Rate 200 g/ha): 0
Plant response rating, Blackgrass (blackgrass; Rate 200 g/ha, POSTEMERGENCE): 3
Plant response rating, Cheatgrass (cheatgrass; POSTEMERGENCE, Rate 50 g/ha): 3
Plant response rating, Cheatgrass (cheatgrass; PREEMERGENCE, Rate 50 g/ha): 0
Plant response rating (0 to 10 scale), Cheatgrass (cheatgrass; PREEMERGENCE, Rate 200 g/ha): 2
Plant response rating, Cheatgrass (cheatgrass; Rate 200 g/ha, POSTEMERGENCE): 4
Plant response rating, Chickweed (chickweed; POSTEMERGENCE, Rate 50 g/ha): 2
Plant response rating, Chickweed (chickweed; PREEMERGENCE, Rate 50 g/ha): 0
Plant response rating (0 to 10 scale), Chickweed (chickweed; PREEMERGENCE, Rate 200 g/ha): 0
Plant response rating, Chickweed (chickweed; Rate 200 g/ha, POSTEMERGENCE): 3
Plant response rating, Cocklebur (cocklebur; POSTEMERGENCE, Rate 50 g/ha): 8
Plant response rating, Cocklebur (cocklebur; PREEMERGENCE, Rate 50 g/ha): 0
Plant response rating (0 to 10 scale), Cocklebur (cocklebur; PREEMERGENCE, Rate 200 g/ha): 0
Plant response rating, Cocklebur (cocklebur; Rate 200 g/ha, POSTEMERGENCE): 8
Plant response rating, Corn (corn; POSTEMERGENCE, Rate 50 g/ha): 4
Plant response rating, Corn (corn; PREEMERGENCE, Rate 50 g/ha): 0
Plant response rating (0 to 10 scale), Corn (corn; PREEMERGENCE, Rate 200 g/ha): 0
Plant response rating, Corn (corn; Rate 200 g/ha, POSTEMERGENCE): 4
Plant response rating, Cotton (cotton; POSTEMERGENCE, Rate 50 g/ha): 10
Plant response rating, Cotton (cotton; PREEMERGENCE, Rate 50 g/ha): 0
Plant response rating (0 to 10 scale), Cotton (cotton; PREEMERGENCE, Rate 200 g/ha): 0
Plant response rating, Cotton (cotton; Rate 200 g/ha, POSTEMERGENCE): 10
Plant response rating, Crabgrass (crabgrass; POSTEMERGENCE, Rate 50 g/ha): 3
Plant response rating, Crabgrass (crabgrass; PREEMERGENCE, Rate 50 g/ha): 0
Plant response rating (0 to 10 scale), Crabgrass (crabgrass; PREEMERGENCE, Rate 200 g/ha): 2
Plant response rating, Crabgrass (crabgrass; Rate 200 g/ha, POSTEMERGENCE): 6
Plant response rating, Giant foxtail (giant foxtail; POSTEMERGENCE, Rate 50 g/ha): 5
Plant response rating, Giant foxtail (giant foxtail; PREEMERGENCE, Rate 50 g/ha): 0
Plant response rating (0 to 10 scale), Giant foxtail (giant foxtail; PREEMERGENCE, Rate 200 g/ha): 4
Plant response rating, Giant foxtail (giant foxtail; Rate 200 g/ha, POSTEMERGENCE): 5
Plant response rating, Lambsquarter (lambsquarters; POSTEMERGENCE, Rate 50 g/ha): 9
Plant response rating, Lambsquarter (lambsquarters; PREEMERGENCE, Rate 50 g/ha): 7
Plant response rating (0 to 10 scale), Lambsquarter (lambsquarters; PREEMERGENCE, Rate 200 g/ha): 10
Plant response rating, Lambsquarter (lambsquarters; Rate 200 g/ha, POSTEMERGENCE): 10
Plant response rating, Morningglory (morningglory; POSTEMERGENCE, Rate 50 g/ha): 7
Plant response rating, Morningglory (morningglory; PREEMERGENCE, Rate 50 g/ha): 0
Plant response rating (0 to 10 scale), Morningglory (morningglory; PREEMERGENCE, Rate 200 g/ha): 0
Plant response rating, Morningglory (morningglory; Rate 200 g/ha, POSTEMERGENCE): 8
Plant response rating, Rape (rape; POSTEMERGENCE, Rate 50 g/ha): 7
Plant response rating, Rape (rape; PREEMERGENCE, Rate 50 g/ha): 2
Plant response rating (0 to 10 scale), Rape (rape; PREEMERGENCE, Rate 200 g/ha): 3
Plant response rating, Rape (rape; Rate 200 g/ha, POSTEMERGENCE): 9
Plant response rating, Rice (rice; POSTEMERGENCE, Rate 50 g/ha): 5
Plant response rating, Rice (rice; PREEMERGENCE, Rate 50 g/ha): 0
Plant response rating (0 to 10 scale), Rice (rice; PREEMERGENCE, Rate 200 g/ha): 0
Plant response rating, Rice (rice; Rate 200 g/ha, POSTEMERGENCE): 5
Plant response rating, Sorghum (sorghum; POSTEMERGENCE, Rate 50 g/ha): 5
Plant response rating, Sorghum (sorghum; PREEMERGENCE, Rate 50 g/ha): 0
Plant response rating (0 to 10 scale), Sorghum (sorghum; PREEMERGENCE, Rate 200 g/ha): 0
Plant response rating, Sorghum (sorghum; Rate 200 g/ha, POSTEMERGENCE): 6
Plant response rating, Soybean (soybean; POSTEMERGENCE, Rate 50 g/ha): 5
Plant response rating, Soybean (soybean; PREEMERGENCE, Rate 50 g/ha): 0
Plant response rating (0 to 10 scale), Soybean (soybean; PREEMERGENCE, Rate 200 g/ha): 0
Plant response rating, Soybean (soybean; Rate 200 g/ha, POSTEMERGENCE): 6
Plant response rating, Sugar beet (sugar beet; POSTEMERGENCE, Rate 50 g/ha): 10
Plant response rating, Sugar beet (sugar beet; PREEMERGENCE, Rate 50 g/ha): 6
Plant response rating (0 to 10 scale), Sugar beet (sugar beet; PREEMERGENCE, Rate 200 g/ha): 10
Plant response rating, Sugar beet (sugar beet; Rate 200 g/ha, POSTEMERGENCE): 10
Plant response rating, Velvetleaf (velvetleaf; POSTEMERGENCE, Rate 50 g/ha): 10
Plant response rating, Velvetleaf (velvetleaf; PREEMERGENCE, Rate 50 g/ha): 0
Plant response rating (0 to 10 scale), Velvetleaf (velvetleaf; PREEMERGENCE, Rate 200 g/ha): 5
Plant response rating, Velvetleaf (velvetleaf; Rate 200 g/ha, POSTEMERGENCE): 10
Plant response rating, Wheat (wheat; POSTEMERGENCE, Rate 50 g/ha): 4
Plant response rating, Wheat (wheat; PREEMERGENCE, Rate 50 g/ha): 2
Plant response rating (0 to 10 scale), Wheat (wheat; PREEMERGENCE, Rate 200 g/ha): 3
Plant response rating, Wheat (wheat; Rate 200 g/ha, POSTEMERGENCE): 5
Plant response rating, Wild buckwheat (wild buckwheat; POSTEMERGENCE, Rate 50 g/ha): 10
Plant response rating, Wild buckwheat (wild buckwheat; PREEMERGENCE, Rate 50 g/ha): 8
Plant response rating (0 to 10 scale), Wild buckwheat (wild buckwheat; PREEMERGENCE, Rate 200 g/ha): 8
Plant response rating, Wild buckwheat (wild buckwheat; Rate 200 g/ha, POSTEMERGENCE): 10
Plant response rating, Wild oat (wild oat; POSTEMERGENCE, Rate 50 g/ha): 2
Plant response rating, Wild oat (wild oat; PREEMERGENCE, Rate 50 g/ha): 2
Plant response rating (0 to 10 scale), Wild oat (wild oat; PREEMERGENCE, Rate 200 g/ha): 3
Plant response rating, Wild oat (wild oat; Rate 200 g/ha, POSTEMERGENCE): 3
Plant response rating, Nutsedge (purple nutsedge; POSTEMERGENCE, Rate 50 g/ha): 1
Plant response rating, Nutsedge (purple nutsedge; PREEMERGENCE, Rate 50 g/ha): 0
Plant response rating (0 to 10 scale), Nutsedge (purple nutsedge; PREEMERGENCE, Rate 200 g/ha): 0
Plant response rating, Nutsedge (purple nutsedge; Rate 200 g/ha, POSTEMERGENCE): 5
